# Activity calls are given as the source filed them. The calls are words filed in the database; no cut-off is given here.
# System: Calf thymus DNA
# Experiment: Binding affinity to calf thymus DNA assessed as hypochromic effect by UV-visible spectrophotometer
# Format: nucleic-acid assay
# Set-up: concentration or dose not given beside the values
# Conditions: Bos taurus
row,Activity,SMILES
1,50%,CCCCN1C(=O)CN/C1=N\c1ccc2cc3ccc(/N=C4\NCC(=O)N4CCCC)cc3nc2c1
2,34%,CCN1C(=O)CN/C1=N\c1ccc2cc3ccc(/N=C4\NCC(=O)N4CC)cc3nc2c1
3,47%,CCCCCCN1C(=O)CN/C1=N\c1ccc2cc3ccc(/N=C4\NCC(=O)N4CCCCCC)cc3nc2c1.Cl

# System: Calf thymus DNA
# Experiment: Binding affinity to calf thymus DNA at pH 7.4 by UV-visible spectrophotometer
# Format: nucleic-acid assay
# Conditions: Bos taurus
row,K,SMILES
1,4.2 ×10⁵ /M,CCCCN1C(=O)CN/C1=N\c1ccc2cc3ccc(/N=C4\NCC(=O)N4CCCC)cc3nc2c1
2,7.1 ×10⁵ /M,CCN1C(=O)CN/C1=N\c1ccc2cc3ccc(/N=C4\NCC(=O)N4CC)cc3nc2c1
3,1.9 ×10⁵ /M,CCCCCCN1C(=O)CN/C1=N\c1ccc2cc3ccc(/N=C4\NCC(=O)N4CCCCCC)cc3nc2c1.Cl

# Species: Bos taurus
# Experiment: Inhibition of calf thymus topoisomerase 1-mediated supercoiled DNA relaxation at 5 uM after 45 mins by ethidium bromide staining agarose gel electrophoresis
# Conditions: not given
row,inhibition,SMILES
1,inactive,CCCCN1C(=O)CN/C1=N\c1ccc2cc3ccc(/N=C4\NCC(=O)N4CCCC)cc3nc2c1
2,inactive,CCN1C(=O)CN/C1=N\c1ccc2cc3ccc(/N=C4\NCC(=O)N4CC)cc3nc2c1
3,inactive,CCCCCCN1C(=O)CN/C1=N\c1ccc2cc3ccc(/N=C4\NCC(=O)N4CCCCCC)cc3nc2c1.Cl

# Species: Bos taurus
# Experiment: Inhibition of calf thymus topoisomerase 1-mediated supercoiled DNA relaxation at 40 uM after 45 mins by ethidium bromide staining agarose gel electrophoresis
# Conditions: not given
row,inhibition,SMILES
1,Active,CCCCN1C(=O)CN/C1=N\c1ccc2cc3ccc(/N=C4\NCC(=O)N4CCCC)cc3nc2c1
2,Active,CCN1C(=O)CN/C1=N\c1ccc2cc3ccc(/N=C4\NCC(=O)N4CC)cc3nc2c1
3,Active,CCCCCCN1C(=O)CN/C1=N\c1ccc2cc3ccc(/N=C4\NCC(=O)N4CCCCCC)cc3nc2c1.Cl

# System: HL-60
# Experiment: Cytotoxicity against human HL60 cells after 48 hrs by MTT assay
# Format: functional, cell-based
# Conditions: HL-60, 48 h
row,SMILES,IC50
1,CCCCN1C(=O)CN/C1=N\c1ccc2cc3ccc(/N=C4\NCC(=O)N4CCCC)cc3nc2c1,13.7 µM
2,CCN1C(=O)CN/C1=N\c1ccc2cc3ccc(/N=C4\NCC(=O)N4CC)cc3nc2c1,76.6 µM
3,CCCCCCN1C(=O)CN/C1=N\c1ccc2cc3ccc(/N=C4\NCC(=O)N4CCCCCC)cc3nc2c1.Cl,4.61 µM

# System: HL-60
# Experiment: Cytotoxicity against human HL60 cells after 72 hrs by MTT assay
# Format: functional, cell-based
# Conditions: HL-60, 72 h
row,SMILES,IC50
1,CCCCN1C(=O)CN/C1=N\c1ccc2cc3ccc(/N=C4\NCC(=O)N4CCCC)cc3nc2c1,16.4 µM
2,CCN1C(=O)CN/C1=N\c1ccc2cc3ccc(/N=C4\NCC(=O)N4CC)cc3nc2c1,80.3 µM
3,CCCCCCN1C(=O)CN/C1=N\c1ccc2cc3ccc(/N=C4\NCC(=O)N4CCCCCC)cc3nc2c1.Cl,4.94 µM

# System: L1210
# Experiment: Cytotoxicity against mouse L1210 cells after 48 hrs by MTT assay
# Format: functional, cell-based
# Conditions: L1210, 48 h
row,SMILES,IC50
1,CCCCN1C(=O)CN/C1=N\c1ccc2cc3ccc(/N=C4\NCC(=O)N4CCCC)cc3nc2c1,29.2 µM
2,CCN1C(=O)CN/C1=N\c1ccc2cc3ccc(/N=C4\NCC(=O)N4CC)cc3nc2c1,> 100 µM
3,CCCCCCN1C(=O)CN/C1=N\c1ccc2cc3ccc(/N=C4\NCC(=O)N4CCCCCC)cc3nc2c1.Cl,5.52 µM

# System: L1210
# Experiment: Cytotoxicity against mouse L1210 cells after 72 hrs by MTT assay
# Format: functional, cell-based
# Conditions: L1210, 72 h
row,SMILES,IC50
1,CCCCN1C(=O)CN/C1=N\c1ccc2cc3ccc(/N=C4\NCC(=O)N4CCCC)cc3nc2c1,26.1 µM
2,CCN1C(=O)CN/C1=N\c1ccc2cc3ccc(/N=C4\NCC(=O)N4CC)cc3nc2c1,> 100 µM
3,CCCCCCN1C(=O)CN/C1=N\c1ccc2cc3ccc(/N=C4\NCC(=O)N4CCCCCC)cc3nc2c1.Cl,5.99 µM

# System: HL-60
# Experiment: Cytotoxicity against human HL60 cells after 48 hrs by trypan blue dye exclusion test
# Format: functional, cell-based
# Conditions: HL-60, 48 h
row,SMILES,IC50
1,CCCCN1C(=O)CN/C1=N\c1ccc2cc3ccc(/N=C4\NCC(=O)N4CCCC)cc3nc2c1,11.7 µM
2,CCN1C(=O)CN/C1=N\c1ccc2cc3ccc(/N=C4\NCC(=O)N4CC)cc3nc2c1,83.8 µM
3,CCCCCCN1C(=O)CN/C1=N\c1ccc2cc3ccc(/N=C4\NCC(=O)N4CCCCCC)cc3nc2c1.Cl,2.44 µM

# System: HL-60
# Experiment: Cytotoxicity against human HL60 cells after 72 hrs by trypan blue dye exclusion test
# Format: functional, cell-based
# Conditions: HL-60, 72 h
row,SMILES,IC50
1,CCCCN1C(=O)CN/C1=N\c1ccc2cc3ccc(/N=C4\NCC(=O)N4CCCC)cc3nc2c1,14.7 µM
2,CCN1C(=O)CN/C1=N\c1ccc2cc3ccc(/N=C4\NCC(=O)N4CC)cc3nc2c1,85.2 µM
3,CCCCCCN1C(=O)CN/C1=N\c1ccc2cc3ccc(/N=C4\NCC(=O)N4CCCCCC)cc3nc2c1.Cl,2.12 µM

# System: L1210
# Experiment: Cytotoxicity against mouse L1210 cells after 48 hrs by trypan blue dye exclusion test
# Format: functional, cell-based
# Conditions: L1210, 48 h
row,SMILES,IC50
1,CCCCN1C(=O)CN/C1=N\c1ccc2cc3ccc(/N=C4\NCC(=O)N4CCCC)cc3nc2c1,26.4 µM
2,CCN1C(=O)CN/C1=N\c1ccc2cc3ccc(/N=C4\NCC(=O)N4CC)cc3nc2c1,91.7 µM
3,CCCCCCN1C(=O)CN/C1=N\c1ccc2cc3ccc(/N=C4\NCC(=O)N4CCCCCC)cc3nc2c1.Cl,4.31 µM

# System: L1210
# Experiment: Cytotoxicity against mouse L1210 cells after 72 hrs by trypan blue dye exclusion test
# Format: functional, cell-based
# Conditions: L1210, 72 h
row,SMILES,IC50
1,CCCCN1C(=O)CN/C1=N\c1ccc2cc3ccc(/N=C4\NCC(=O)N4CCCC)cc3nc2c1,27.3 µM
2,CCN1C(=O)CN/C1=N\c1ccc2cc3ccc(/N=C4\NCC(=O)N4CC)cc3nc2c1,> 100 µM
3,CCCCCCN1C(=O)CN/C1=N\c1ccc2cc3ccc(/N=C4\NCC(=O)N4CCCCCC)cc3nc2c1.Cl,5.28 µM

# System: HL-60
# Experiment: Antiproliferative activity against human HL60 cells assessed as cytostatic effect at 1 uM after 72 hrs
# Format: functional, cell-based
# Conditions: not given
row,SMILES,Activity
1,CCCCCCN1C(=O)CN/C1=N\c1ccc2cc3ccc(/N=C4\NCC(=O)N4CCCCCC)cc3nc2c1.Cl,Active

# System: HL-60
# Experiment: Cytotoxicity against human HL60 cells at 3 to 10 uM after 72 hrs
# Format: functional, cell-based
# Conditions: not given
row,SMILES,Activity
1,CCCCCCN1C(=O)CN/C1=N\c1ccc2cc3ccc(/N=C4\NCC(=O)N4CCCCCC)cc3nc2c1.Cl,Toxic

# System: not listed separately
# Experiment: Octanol-water partition coefficient, log P of the compound
# Format: physicochemical
# Conditions: not given
row,logP,SMILES
1,4.1,CCCCN1C(=O)CN/C1=N\c1ccc2cc3ccc(/N=C4\NCC(=O)N4CCCC)cc3nc2c1
2,2.17,CCN1C(=O)CN/C1=N\c1ccc2cc3ccc(/N=C4\NCC(=O)N4CC)cc3nc2c1
3,5.88,CCCCCCN1C(=O)CN/C1=N\c1ccc2cc3ccc(/N=C4\NCC(=O)N4CCCCCC)cc3nc2c1.Cl

# System: HL-60
# Experiment: Drug uptake in human HL60 cells assessed as drug accumulation at 5 uM after 140 mins by fluorescence analysis
# Format: ADME, cell-based
# Conditions: hl-60, 140 min
row,Drug uptake,SMILES
1,Active,CCCCCCN1C(=O)CN/C1=N\c1ccc2cc3ccc(/N=C4\NCC(=O)N4CCCCCC)cc3nc2c1.Cl

# System: HL-60
# Experiment: Drug uptake in human HL60 cells assessed as drug distribution in plasmatic membrane and cytosol at 5 uM after 4 hrs by fluorescence analysis
# Format: ADME, cell-based
# Conditions: hl-60, 4 h
row,Drug uptake,SMILES
1,Active,CCCCCCN1C(=O)CN/C1=N\c1ccc2cc3ccc(/N=C4\NCC(=O)N4CCCCCC)cc3nc2c1.Cl

# System: HL-60
# Experiment: Drug uptake in human HL60 cells assessed as drug accumulation in nucleus at 5 uM after 24 hrs by fluorescence analysis
# Format: ADME, cell-based
# Conditions: hl-60, 24 h
row,Drug uptake,SMILES
1,Active,CCCCCCN1C(=O)CN/C1=N\c1ccc2cc3ccc(/N=C4\NCC(=O)N4CCCCCC)cc3nc2c1.Cl

# System: U-937
# Experiment: Induction of apoptosis in human U937 cells assessed as DNA fragmentation at 122 uM after 18 hrs by ethidium bromide staining agarose gel electrophoresis
# Format: functional, cell-based
# Conditions: not given
row,SMILES,Activity
1,CCCCN1C(=O)CN/C1=N\c1ccc2cc3ccc(/N=C4\NCC(=O)N4CCCC)cc3nc2c1,Active
2,CCN1C(=O)CN/C1=N\c1ccc2cc3ccc(/N=C4\NCC(=O)N4CC)cc3nc2c1,Active
3,CCCCCCN1C(=O)CN/C1=N\c1ccc2cc3ccc(/N=C4\NCC(=O)N4CCCCCC)cc3nc2c1.Cl,Active

# System: Calf thymus DNA
# Experiment: Binding affinity to C:G base pair region of calf thymus DNA by UV-visible spectrophotometer
# Format: nucleic-acid assay
# Conditions: Bos taurus
row,Activity,SMILES
1,Active,CCCCN1C(=O)CN/C1=N\c1ccc2cc3ccc(/N=C4\NCC(=O)N4CCCC)cc3nc2c1
2,Active,CCN1C(=O)CN/C1=N\c1ccc2cc3ccc(/N=C4\NCC(=O)N4CC)cc3nc2c1
3,Active,CCCCCCN1C(=O)CN/C1=N\c1ccc2cc3ccc(/N=C4\NCC(=O)N4CCCCCC)cc3nc2c1.Cl

# System: Calf thymus DNA
# Experiment: Binding affinity to A:T base pair region of calf thymus DNA by UV-visible spectrophotometer
# Format: nucleic-acid assay
# Conditions: Bos taurus
row,Activity,SMILES
1,inactive,CCCCN1C(=O)CN/C1=N\c1ccc2cc3ccc(/N=C4\NCC(=O)N4CCCC)cc3nc2c1
2,inactive,CCN1C(=O)CN/C1=N\c1ccc2cc3ccc(/N=C4\NCC(=O)N4CC)cc3nc2c1
3,inactive,CCCCCCN1C(=O)CN/C1=N\c1ccc2cc3ccc(/N=C4\NCC(=O)N4CCCCCC)cc3nc2c1.Cl

# — ChEMBL document CHEMBL1681700, “Cytotoxic 3,6-bis((imidazolidinone)imino)acridines: synthesis, DNA binding and molecular modeling” (Bioorg Med Chem, 2011)
